Results: patent publication US20060040957A1, “BICYCLIC PYRIMIDINE MATRIX METALLOPROTEINASE INHIBITORS” (priority 2001, published 2006)
Counter-ions that a name gives are not always drawn. Like-named read-outs stand apart in the source and are kept apart here.

Assays:
[1] = biological target: T1, MMP-2FL (full length Gelatinase A) (Homo sapiens, UniProt P08253); assay: Thiopeptolide substrate hydrolysis assay, MMP-2FL; format: biochemical; conditions: HEPES pH 7.0, 22° C., read-out: IC50 (μM) Versus Certain MMPs: MMP-02 FL
T1 sequence (P08253 110-660): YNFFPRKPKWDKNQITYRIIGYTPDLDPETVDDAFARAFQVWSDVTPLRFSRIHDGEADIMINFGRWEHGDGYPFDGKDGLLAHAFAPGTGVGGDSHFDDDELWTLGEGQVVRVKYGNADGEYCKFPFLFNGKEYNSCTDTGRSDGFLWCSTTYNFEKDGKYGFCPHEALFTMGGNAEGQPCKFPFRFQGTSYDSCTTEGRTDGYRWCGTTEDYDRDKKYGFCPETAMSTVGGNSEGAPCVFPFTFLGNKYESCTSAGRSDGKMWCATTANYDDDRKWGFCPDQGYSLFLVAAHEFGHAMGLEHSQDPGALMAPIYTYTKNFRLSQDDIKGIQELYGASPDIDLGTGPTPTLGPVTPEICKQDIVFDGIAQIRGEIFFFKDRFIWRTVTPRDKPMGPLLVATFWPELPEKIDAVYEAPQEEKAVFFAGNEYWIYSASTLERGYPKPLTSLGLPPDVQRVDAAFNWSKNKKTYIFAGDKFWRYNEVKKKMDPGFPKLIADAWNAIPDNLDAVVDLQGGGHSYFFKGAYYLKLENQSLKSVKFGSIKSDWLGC
From the text: (§1) The invention compounds of Formula I have been evaluated in standard assays for their ability to inhibit the catalytic activity of various MMP enzymes.
(§2) Thiopeptolide substrates show virtually no decomposition or hydrolysis at or below neutral pH in the absence of a matrix metalloproteinase enzyme.
(§3) Several representative compounds have been evaluated for their ability to inhibit various matrix metalloproteinase enzymes.

[2] = biological target: T2, MMP-7FL (full length matrilysin) (Homo sapiens, UniProt P09237); assay: Thiopeptolide substrate hydrolysis assay, MMP-7FL; format: biochemical; conditions: HEPES pH 7.0, 22° C., read-out: IC50 (μM) Versus Certain MMPs: MMP-07 FL
T2 sequence (P09237 95-267): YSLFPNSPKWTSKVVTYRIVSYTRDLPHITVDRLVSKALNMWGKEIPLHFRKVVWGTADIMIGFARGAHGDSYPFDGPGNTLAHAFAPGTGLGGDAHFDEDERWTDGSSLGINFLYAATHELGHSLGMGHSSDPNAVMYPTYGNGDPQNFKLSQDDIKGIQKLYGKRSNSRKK
From the text: as §1, §2, §3

[3] = biological target: MMP-9FL (full length Gelatinase B) (Homo sapiens, UniProt P14780); assay: Thiopeptolide substrate hydrolysis assay, MMP-9FL; format: biochemical; conditions: HEPES pH 7.0, 22° C., read-out: IC50 (μM) Versus Certain MMPs: MMP-09 FL
From the text: as §1, §2, §3

[4] = biological target: MMP-14CD (catalytic domain of MMP-14) (Homo sapiens, UniProt P50281); assay: Thiopeptolide substrate hydrolysis assay, MMP-14CD; format: biochemical; conditions: HEPES pH 7.0, 22° C., read-out: IC50 (μM) Versus Certain MMPs: MMP-14 CD
From the text: as §1, §2, §3

[5] = biological target: MMP-13CD (catalytic domain of collagenase 3) (Homo sapiens, UniProt P45452); assay: Thiopeptolide substrate hydrolysis assay, MMP-13CD; format: biochemical
From the text: as §2

[6] = thiopeptolide substrate, HEPES pH 7.0, 22° C., read-out: IC50 (μM) Versus Certain MMPs: MMP-13 CD

Sequence of MMP-9FL (full length Gelatinase B) (P14780 94-707, species assumed): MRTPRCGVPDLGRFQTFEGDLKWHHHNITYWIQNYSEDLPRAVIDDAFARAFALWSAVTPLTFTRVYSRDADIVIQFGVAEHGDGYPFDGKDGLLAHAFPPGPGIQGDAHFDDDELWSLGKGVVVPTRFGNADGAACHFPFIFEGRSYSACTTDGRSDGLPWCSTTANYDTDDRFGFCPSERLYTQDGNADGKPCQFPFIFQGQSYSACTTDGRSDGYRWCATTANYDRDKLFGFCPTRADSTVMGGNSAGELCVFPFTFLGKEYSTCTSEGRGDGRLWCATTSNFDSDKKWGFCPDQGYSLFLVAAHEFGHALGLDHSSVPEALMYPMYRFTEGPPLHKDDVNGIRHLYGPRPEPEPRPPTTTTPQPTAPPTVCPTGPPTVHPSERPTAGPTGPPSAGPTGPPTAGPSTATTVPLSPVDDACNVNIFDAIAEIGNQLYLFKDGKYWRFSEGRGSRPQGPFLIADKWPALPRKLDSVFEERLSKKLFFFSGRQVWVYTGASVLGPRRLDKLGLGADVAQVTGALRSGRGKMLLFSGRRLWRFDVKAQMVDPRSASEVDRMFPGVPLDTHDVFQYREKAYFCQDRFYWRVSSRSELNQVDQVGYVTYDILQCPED

| melting point | IC50 [1] [µM] | IC50 [2] [µM] | IC50 [3] [µM] | IC50 [4] [µM] | IC50 [5, 6] [µM] | IC50 ([5]; running text after Table 1, read-out: IC50 inhibition of MMP-13CD) [µM] | Structure (SMILES) |
| --- | --- | --- | --- | --- | --- | --- | --- |
| > 210 °C |  |  |  |  |  |  | COc1ccc(CNC(=O)c2cn3c(=O)n(Cc4ccc(C(=O)O)cc4)c(=O)c(C)c3s2)cc1 [Example 55, 4-[2-(4-Methoxy-benzylcarbamoyl)-8-methyl-5,7-dioxo-7H-thiazolo[3,2-c]pyrimidin-6-ylmethyl]-benzoic acid] |
| > 215 °C | > 30 | > 30 | > 100 | > 100 |  |  | COC(=O)c1ccc(Cn2c(=O)c(C)c3sc(C(=O)NCc4ccc(F)cc4)cn3c2=O)cc1 [Example 106, 4-[2-(4-Fluoro-benzylcarbamoyl)-8-methyl-5,7-dioxo-7H-thiazolo[3,2-c]pyrimidin-6-ylmethyl]-benzoic acid methyl ester] |
| > 220 °C | > 100 | > 100 | > 100 | > 100 |  |  | O=C(NCc1ccccc1)c1cn2c(=O)n(Cc3ccc(Cl)cc3)c(=O)cc2s1 [Example 13, 6-(4-Chlorobenzyl)-5,7-dioxo-6,7-dihydro-5H-thiazolo[3,2-c]pyrimidine-2-carboxylic acid benzylamide] |
| > 220 °C | > 30 | > 30 | > 30 | > 30 |  |  | Cc1c(=O)n(Cc2ccc(C#N)cc2)c(=O)n2cc(C(=O)NCc3ccc(F)cc3)sc12 [Example 107, 6-(4-Cyano-benzyl)-8-methyl-5,7-dioxo-6,7-dihydro-5H-thiazolo[3,2-c]pyrimidine-2-carboxylic acid 4-fluoro-benzylamide] |
| 176 to 178 °C | > 30 | 26 | > 30 | > 30 |  |  | COC(=O)c1ccc(Cn2c(=O)c(C)c3sc(C(=O)NCc4ccc(F)cc4)cn3c2=O)cc1Cl [Example 65, 2-Chloro-4-[2-(4-fluoro-benzylcarbamoyl)-8-methyl-5,7-dioxo-7H-thiazolo[3,2-c]pyrimidin-6-ylmethyl]-benzoic acid methyl ester] |
| 204 to 207 °C (dec.) | > 30 | > 30 | > 30 | > 30 |  |  | O=C(NCc1ccccc1)c1cn2c(=O)n(C(=O)c3ccccc3)c(=O)cc2s1 [Example 11, 6-Benzoyl-5,7-dioxo-6,7-dihydro-5H-thiazolo[3,2-c]pyrimidine-2-carboxylic acid benzylamide] |
| 180 to 182 °C | > 30 | > 30 | > 30 | > 30 |  |  | Cc1c(=O)n(Cc2ccccc2)c(=O)n2cc(C(=O)NCc3ccc(Cl)c(Cl)c3)sc12 [Example 18, 6-Benzyl-8-methyl-5,7-dioxo-6,7-dihydro-5H-thiazolo[3,2-c]pyrimidine-2-carboxylic acid 3,4-dichlorobenzylamide] |
| 160 to 162 °C | > 30 | > 30 | > 30 | > 30 |  |  | COc1ccc(CNC(=O)c2cn3c(=O)n(Cc4ccccc4)c(=O)c(C)c3s2)cc1 [Example 17, 6-Benzyl-8-methyl-5,7-dioxo-6,7-dihydro-5H-thiazolo[3,2-c]pyrimidine-2-carboxylic acid 4-methoxybenzylamide] |
| > 205 °C |  |  |  |  |  |  | Cc1c(=O)[nH]c(=O)n2cc(C(=O)O)sc12 [Example 54, 8-Methyl-5,7-dioxo-6,7-dihydro-5H-thiazolo[3,2-c]pyrimidine-2-carboxylic acid] |
| > 210 °C |  |  |  |  |  |  | O=C(NCc1ccccc1)c1cn2c(=O)n(Cc3ccncc3)c(=O)cc2s1 (as salt: hydrochloride) (hydrate or solvate) [Example 15, 6-(4-Pyridylmethyl)-5,7-dioxo-6,7-dihydro-5H-thiazolo[3,2-c]pyrimidine-2-carboxylic acid benzylamide hydrochloride] |
|  | > 100 | > 100 | > 100 | > 100 | 0.00222 |  | Cc1c(=O)n(Cc2ccc(C(=O)O)cc2)c(=O)n2cc(C(=O)NCc3ccc(F)cc3)sc12 [Example 58, 4-[2-(4-Fluoro-benzylcarbamoyl)-8-methyl-5,7-dioxo-7H-thiazolo[3,2-c]pyrimidin-6-ylmethyl]-benzoic acid] |
|  |  |  |  |  | 25 |  | Cc1c(=O)n(Cc2ccccc2)c(=O)n2cc(C(O)C=Cc3ccccc3)sc12 (stereo not shown) [Example 29, 6-Benzyl-2-(1-hydroxy-3-phenyl-allyl)-8-methyl-thiazolo[3,2-c]pyrimidine-5,7-dione] |
|  |  |  |  |  | > 100 |  | O=C(c1ccccc1)n1c(=O)cc2sccn2c1=O [6-Benzoyl-thiazolo[3,2-c]pyrimidine-5,7-dione] |
|  |  |  |  |  | > 100 |  | Cc1nc(CNC(=O)c2cn3c(=O)n(Cc4ccccc4)c(=O)c(C)c3s2)cs1 [Example 52, 6-Benzyl-8-methyl-5,7-dioxo-6,7-dihydro-5H-thiazolo[3,2-c]pyrimidine-2-carboxylic acid(2-methyl-thiazol-4-ylmethyl)-amide hydrochloride] |
|  |  |  |  |  |  | 0.17 | COC(=O)Nc1cc(Cn2c(=O)c(C)c3sc(C(=O)NCc4ccc(F)cc4)cn3c2=O)on1 [Example 111, {5-[2-(4-Fluoro-benzylcarbamoyl)-8-methyl-5,7-dioxo-7H-thiazolo[3,2-c]pyrimidine-6-ylmethyl]-isoxazol-3-yl}-carbamic acid methyl ester] |
| 206 to 207 °C |  |  |  |  |  |  | COc1ccc(CNC(=O)c2cn3c(=O)n(Cc4ccc(Cl)c(Cl)c4)c(=O)cc3s2)cc1 [Example 102, 6-(3,4-Dichloro-benzyl)-5,7-dioxo-6,7-dihydro-5H-thiazolo[3,2-c]pyrimidine-2-carboxylic acid 4-methoxy-benzylamide] |
|  |  |  |  |  | > 30 |  | Cc1c(=O)n(Cc2ccccc2)c(=O)n2cc(C(=S)NCc3ccccc3)sc12 [Example 24, 6-Benzyl-8-methyl-5,7-dioxo-6,7-dihydro-5H-thiazolo[3,2-c]pyrimidine-2-carbothioic acid benzylamide] |
|  |  |  |  |  | 1.2 |  | Cc1c(=O)n(CCS(=O)(=O)c2ccccc2)c(=O)n2cc(C(=O)NCc3ccc(F)cc3)sc12 [Example 96, 6-(2-Benzenesulfonyl-ethyl)-8-methyl-5,7-dioxo-6,7-dihydro-5H-thiazolo[3,2-c]pyrimidine-2-carboxylic acid 4-fluoro-benzylamide] |
| 163 to 165 °C |  |  |  |  |  |  | Cc1c(=O)n(Cc2ccc(C(=O)OC(C)(C)C)cc2)c(=O)n2ccsc12 [Example 104, 4-(8-Methyl-5,7-dioxo-7H-thiazolo[3,2-c]pyrimidin-6-ylmethyl)-benzoic acid tert-butyl ester] |
|  |  |  |  |  | 1.08 |  | Cc1c(=O)n(CCCCCC#N)c(=O)n2cc(C(=O)NCc3ccc(F)cc3)sc12 [Example 89, 6-(5-Cyano-pentyl)-8-methyl-5,7-dioxo-6,7-dihydro-5H-thiazolo[3,2-c]pyrimidine-2-carboxylic acid 4-fluoro-benzylamide] |
|  |  |  |  |  | 32 |  | O=c1cc2sc(C(O)c3ccccc3)cn2c(=O)n1Cc1ccccc1 (stereo not shown) [Example 7, 6-Benzyl-2-(hydroxy-phenyl-methyl)-thiazolo[3,2-c]pyrimidine-5,7-dione] |

| Structure (SMILES) | melting point | IC50 [1] [µM] | IC50 [2] [µM] | IC50 [3] [µM] | IC50 [4] [µM] | IC50 [5, 6] [µM] | IC50 ([5]; running text after Table 1, read-out: IC50 inhibition of MMP-13CD) [µM] |
| --- | --- | --- | --- | --- | --- | --- | --- |
| Cc1c(=O)n(Cc2ccc(C#N)cc2)c(=O)n2cc(C(=O)NCc3ccncc3)sc12 [Example 85, 6-(4-Cyano-benzyl)-8-methyl-5,7-dioxo-6,7-dihydro-5H-thiazolo[3,2-c]pyrimidine-2-carboxylic acid(pyridin-4-ylmethyl)-amide hydrochloride] |  | > 30 | > 30 | > 30 | > 30 | 0.0547 |  |
